Reference: patent US6350743B1, “Cytotoxic pyridoacridine alkaloids” (Instituto Biomar, S.A., priority 1997, dated 2002)

How the values were obtained:
Type in all cases: cell-based
[1] = system: MEL-28 (monolayer culture of a human melanoma); assay: Antitumor screening, MEL-28 cell growth; conditions: SK-MEL-28, MEL-28 cells, approximate IC50
Protocol: (§1) Cells were maintained in logarithmic phase of growth in Eagle's Minimum Essential Medium, with Earle's Balanced Salts, with 2.0 mM L-glutamine, with non-essential amino acids, without sodium bicarbonate (EMEM/neaa); supplemented with 10% Fetal Calf Serum (FCS), 10^−2 M sodium bicarbonate and 0.1 g/l penicillin+G streptomycin sulfate.
(§2) A screening procedure has been carried out to determine and compare the antitumor activity of these compounds, using an adapted form of the method described by Bergeron et al. (Reference 15: Raymond J. Bergeron, Paul F. Cavanaugh, Jr., Steven J. Kline, Robert G. Hughes, Jr., Gary T. Elliot and Carl W. Porter. Antineoplastic and antiherpetic activity of spermidine catecholamide iron chelators. Biochem. Bioph. Res. Comm. 1984, 121, 848-854). The antitumor cells employed were P-388 (suspension culture of a lymphoid neoplasm from DBA/2 mouse), A-549 (monolayer culture of a human lung carcinoma), HT-29 (monolayer culture of a human colon carcinoma) and MEL-28 (monolayer culture of a human melanoma).
(§3) A-549, HT-29 cells were seeded into 16 mm wells at 2×10^4 cells per well in 1 ml aliquots of MEM 10FCS containing the indicated concentration of drug. […] An approximately IC50 was determined by comparing the growth in wells with drug to the growth in wells control.

[2] = system: HT-29 (monolayer culture of a human colon carcinoma); assay: Antitumor screening, HT-29 cell growth (Crystal Violet); conditions: 72 h, HT-29 cells, three days of incubation, approximate IC50
Protocol: as §1, §2, §3

[3] = system: P-388 (suspension culture of a lymphoid neoplasm from DBA/2 mouse); assay: Antitumor screening, P-388 cell growth; conditions: P388, 72 h, P-388 cells, three days of incubation, approximate IC50 vs control growth
Protocol: as §1, §2
P-388 cells were seeded into 16 mm wells at 1×10^4 cells per well in 1 ml aliquots of MEM 5FCS containing the indicated concentration of drug. A separate set of cultures without drug was seeded as control growth to ensure that cells remained in exponential phase of growth. All determinations were carried out in duplicate. […]

[4] = system: A-549 (monolayer culture of a human lung carcinoma); assay: Antitumor screening, A-549 cell growth (Crystal Violet); conditions: A549, 72 h, A-549 cells, three days of incubation, approximate IC50
Protocol: as §1, §2, §3

- IC50 [1]: 530 nM
- IC50 [2]: 2660 nM
- IC50 [3]: 1330 nM
- IC50 [4]: 270 nM
SMILES: CN(C)CCc1c2c(c3nccc4c3c1Nc1ccccc1-4)NC(=O)CS2 [Shermilamine D]
